In ChEMBL document CHEMBL5126650, “Novel IRAK Degraders for Treating Cancer” (ACS Med Chem Lett, 2022):

What follows are compounds tested against Protein cereblon/Interleukin-1 receptor-associated kinase 4 (Homo sapiens, UniProt Q9NWZ3+Q96SW2) (assay: Protac activity at E3 ubiquitin ligase/IRAK4 in human OCILY10 cells assessed as degradation of IRAK4 incubated for 4 hr by MSD assay).
Format: cell-based

Sequence of Protein cereblon/Interleukin-1 receptor-associated kinase 4 (Q9NWZ3 whole entry): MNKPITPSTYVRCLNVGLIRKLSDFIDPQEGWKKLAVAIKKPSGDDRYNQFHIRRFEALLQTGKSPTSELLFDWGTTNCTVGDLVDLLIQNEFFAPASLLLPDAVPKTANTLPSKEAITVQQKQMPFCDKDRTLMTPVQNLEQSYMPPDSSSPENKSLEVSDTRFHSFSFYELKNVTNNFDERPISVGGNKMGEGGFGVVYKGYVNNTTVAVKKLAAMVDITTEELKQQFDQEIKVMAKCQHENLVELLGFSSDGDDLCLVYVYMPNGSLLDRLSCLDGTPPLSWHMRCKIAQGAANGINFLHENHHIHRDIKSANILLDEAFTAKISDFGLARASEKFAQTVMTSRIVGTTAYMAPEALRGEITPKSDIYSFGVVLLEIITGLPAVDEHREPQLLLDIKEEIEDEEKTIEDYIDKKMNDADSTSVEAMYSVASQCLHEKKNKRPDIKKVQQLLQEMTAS
Sequence of Protein cereblon/Interleukin-1 receptor-associated kinase 4 (Q96SW2 whole entry): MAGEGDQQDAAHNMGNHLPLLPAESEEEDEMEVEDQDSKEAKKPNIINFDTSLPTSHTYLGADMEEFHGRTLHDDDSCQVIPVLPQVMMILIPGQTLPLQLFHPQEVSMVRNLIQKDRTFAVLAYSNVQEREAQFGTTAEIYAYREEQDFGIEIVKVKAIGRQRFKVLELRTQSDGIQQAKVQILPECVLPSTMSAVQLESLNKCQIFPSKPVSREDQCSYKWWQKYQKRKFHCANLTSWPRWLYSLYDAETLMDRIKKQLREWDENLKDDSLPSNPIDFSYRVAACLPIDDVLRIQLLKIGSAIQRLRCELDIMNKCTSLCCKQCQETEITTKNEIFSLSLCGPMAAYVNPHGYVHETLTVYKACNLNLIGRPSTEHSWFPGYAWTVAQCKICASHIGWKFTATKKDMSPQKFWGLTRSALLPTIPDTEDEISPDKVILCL

Row | DC50 [nM] | SMILES
1 | < 10 | COc1cc2nc([C@H]3CC[C@H](CN4CCC(c5ccn6c(N7CCC(=O)NC7=O)cnc6c5)CC4)CC3)sc2cc1NC(=O)c1cccc(C(F)(F)F)n1
2 | < 10 | CN(C[C@H]1CC[C@H](n2cc3cc(NC(=O)c4cccc(C(F)(F)F)n4)ncc3n2)CC1)C1CCN(c2ccn3c(N4CCC(=O)NC4=O)cnc3c2)CC1
3 | < 10 | CN(C[C@H]1CC[C@H](n2cc3cc(NC(=O)c4cccc(C(F)(F)F)n4)ccc3n2)CC1)C1CCN(c2ccn3c(N4CCC(=O)NC4=O)cnc3c2)CC1
4 | < 10 | CN(C[C@H]1CC[C@H](n2cc3cc(NC(=O)c4cccc(C(F)(F)F)n4)c(C(C)(C)O)cc3n2)CC1)C1CCN(c2ccc3c(N4CCC(=O)NC4=O)cncc3c2)CC1
5 | < 10 | CN(C[C@H]1CC[C@H](n2cc3cc(NC(=O)c4cccc(C(F)(F)F)n4)c(C(C)(C)O)cc3n2)CC1)C1CCN(c2ccn3c(N4CCC(=O)NC4=O)cnc3c2)CC1
6 | < 10 | COc1cc2nn([C@H]3CC[C@H](CN(C)C4CCN(c5ccc6c(N7CCC(=O)NC7=O)cncc6c5)CC4)CC3)cc2cc1NC(=O)c1cccc(C(F)(F)F)n1
